{"source": "the supplement of paper PMC10307832", "data": [{"compound": "CC1=C(C(=NN1)C)CC2=C(C3=C(S2)N(C(=O)N(C3=O)C)CC(C)C)C(=O)N4C[C@@H](CO4)O + Nc1nc2[nH]cc(CCc3ccc(C(=O)N[C@@H](CCC(=O)O)C(=O)O)cc3)c2c(=O)[nH]1 [Pemetrexed] (partner 0.2 µM)", "assay": "relative viability (nuclei count vs DMSO), 5 days (fraction); higher = more cells survive", "details": "first compound 0.25 µM", "in_short": "(§1)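 One day after seeding in 1536-well plates, lung cancer cell lines were dosed by pin tool. Dosing was either single-drug or a fixed anchor-drug dose plus five library-drug doses (not always all listed) in √10 steps. After 5 days, nuclei were stained in one fix-and-stain step and counted on 4× images, and relative viability is the nuclei count of treated wells over that of vehicle wells, given as the median of duplicate plates.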", "values": [{"cell line": "NCI-H2170", "relative viability": 0.266}, {"cell line": "HCC-44", "relative viability": 0.694}, {"cell line": "SW 900", "relative viability": 0.434}, {"cell line": "NCI-H1648", "relative viability": 0.673}, {"cell line": "NCI-H1395", "relative viability": 0.718}, {"cell line": "NCI-H1792", "relative viability": 0.719}, {"cell line": "NCI-H1793", "relative viability": 0.609}, {"cell line": "NCI-H1563", "relative viability": 0.857}, {"cell line": "NCI-H1944", "relative viability": 0.622}, {"cell line": "NCI-H358", "relative viability": 0.181}]}, {"compound": "Cc1ccccc1C(C(=O)NC1CCCCC1)N(C(=O)Cn1ccnc1C)c1cccc(F)c1 [IDH-C35] + O=C(CCCCCCC(=O)Nc1ccccc1)NO [Vorinostat] (partner 1 µM)", "assay": "relative viability (nuclei count vs DMSO), 5 days (fraction); higher = more cells survive", "details": "first compound 0.08 µM", "in_short": "as §1", "values": [{"cell line": "NCI-H522", "relative viability": 0.953}, {"cell line": "NCI-H727", "relative viability": 1.2}, {"cell line": "NCI-H1650", "relative viability": 0.685}, {"cell line": "NCI-H1993", "relative viability": 0.726}, {"cell line": "SW 1573", "relative viability": 0.859}, {"cell line": "NCI-H838", "relative viability": 0.706}, {"cell line": "LCLC-103H", "relative viability": 0.782}, {"cell line": "NCI-H520", "relative viability": 0.68}, {"cell line": "NCI-H2126", "relative viability": 0.683}, {"cell line": "EMC-BAC-2", "relative viability": 0.474}, {"cell line": "NCI-H2085", "relative viability": 0.88}, {"cell line": "HCC-366", "relative viability": 0.49}, {"cell line": "NCI-H1666", "relative viability": 1.04}, {"cell line": "NCI-H596", "relative viability": 0.733}, {"cell line": "LK-2", "relative viability": 0.352}, {"cell line": "NCI-H2087", "relative viability": 0.821}, {"cell line": "NCI-H2342", "relative viability": 0.817}, {"cell line": "SK-MES-1", "relative viability": 1.18}, {"cell line": "IA-LM", "relative viability": 1}, {"cell line": "NCI-H2170", "relative viability": 0.796}, {"cell line": "HCC-44", "relative viability": 1.11}, {"cell line": "SW 900", "relative viability": 0.496}, {"cell line": "NCI-H1395", "relative viability": 0.773}, {"cell line": "NCI-H1793", "relative viability": 0.784}, {"cell line": "NCI-H1944", "relative viability": 0.496}, {"cell line": "ABC-1", "relative viability": 1.12}, {"cell line": "NCI-H358", "relative viability": 0.709}]}, {"compound": "Cc1ccccc1C(C(=O)NC1CCCCC1)N(C(=O)Cn1ccnc1C)c1cccc(F)c1 [IDH-C35] + O=C(CCCCCCC(=O)Nc1ccccc1)NO [Vorinostat] (partner 1 µM)", "assay": "relative viability (nuclei count vs DMSO), 5 days (fraction); higher = more cells survive", "details": "first compound 0.253 µM", "in_short": "as §1", "values": [{"cell line": "NCI-H522", "relative viability": 1.12}, {"cell line": "NCI-H727", "relative viability": 1.08}, {"cell line": "NCI-H1650", "relative viability": 0.491}, {"cell line": "NCI-H1993", "relative viability": 0.717}, {"cell line": "SW 1573", "relative viability": 0.851}, {"cell line": "NCI-H838", "relative viability": 0.675}, {"cell line": "LCLC-103H", "relative viability": 0.755}, {"cell line": "NCI-H520", "relative viability": 0.728}, {"cell line": "NCI-H2126", "relative viability": 0.806}, {"cell line": "EMC-BAC-2", "relative viability": 0.464}, {"cell line": "NCI-H2085", "relative viability": 0.784}, {"cell line": "HCC-366", "relative viability": 0.351}, {"cell line": "NCI-H1666", "relative viability": 0.997}, {"cell line": "NCI-H596", "relative viability": 0.584}, {"cell line": "LK-2", "relative viability": 0.273}, {"cell line": "NCI-H2087", "relative viability": 0.715}, {"cell line": "NCI-H2342", "relative viability": 0.712}, {"cell line": "SK-MES-1", "relative viability": 1.08}, {"cell line": "IA-LM", "relative viability": 0.878}, {"cell line": "NCI-H2170", "relative viability": 0.809}, {"cell line": "HCC-44", "relative viability": 1.09}, {"cell line": "SW 900", "relative viability": 0.44}, {"cell line": "NCI-H1648", "relative viability": 0.415}, {"cell line": "NCI-H1395", "relative viability": 0.694}, {"cell line": "NCI-H1793", "relative viability": 0.82}, {"cell line": "NCI-H1944", "relative viability": 0.613}, {"cell line": "ABC-1", "relative viability": 1.07}, {"cell line": "NCI-H358", "relative viability": 0.659}]}, {"compound": "Cc1ccccc1C(C(=O)NC1CCCCC1)N(C(=O)Cn1ccnc1C)c1cccc(F)c1 [IDH-C35] + O=C(CCCCCCC(=O)Nc1ccccc1)NO [Vorinostat] (partner 1 µM)", "assay": "relative viability (nuclei count vs DMSO), 5 days (fraction); higher = more cells survive", "details": "first compound 0.8 µM", "in_short": "as §1", "values": [{"cell line": "NCI-H522", "relative viability": 0.896}, {"cell line": "NCI-H727", "relative viability": 1.02}, {"cell line": "NCI-H1650", "relative viability": 0.569}, {"cell line": "NCI-H1993", "relative viability": 0.77}, {"cell line": "SW 1573", "relative viability": 0.7}, {"cell line": "NCI-H838", "relative viability": 0.718}, {"cell line": "LCLC-103H", "relative viability": 0.87}, {"cell line": "NCI-H520", "relative viability": 0.899}, {"cell line": "NCI-H2126", "relative viability": 0.698}, {"cell line": "EMC-BAC-2", "relative viability": 0.47}, {"cell line": "NCI-H2085", "relative viability": 0.81}, {"cell line": "HCC-366", "relative viability": 0.321}, {"cell line": "NCI-H1666", "relative viability": 1.08}, {"cell line": "NCI-H596", "relative viability": 0.721}, {"cell line": "LK-2", "relative viability": 0.216}, {"cell line": "NCI-H2087", "relative viability": 0.74}, {"cell line": "NCI-H2342", "relative viability": 0.793}, {"cell line": "SK-MES-1", "relative viability": 1.04}, {"cell line": "IA-LM", "relative viability": 0.881}, {"cell line": "NCI-H2170", "relative viability": 0.804}, {"cell line": "HCC-44", "relative viability": 1.12}, {"cell line": "NCI-H1648", "relative viability": 0.523}, {"cell line": "NCI-H1395", "relative viability": 0.707}, {"cell line": "NCI-H1793", "relative viability": 0.773}, {"cell line": "NCI-H1944", "relative viability": 0.474}, {"cell line": "ABC-1", "relative viability": 0.941}, {"cell line": "NCI-H358", "relative viability": 0.686}]}, {"compound": "Cc1ccccc1C(C(=O)NC1CCCCC1)N(C(=O)Cn1ccnc1C)c1cccc(F)c1 [IDH-C35] + O=C(CCCCCCC(=O)Nc1ccccc1)NO [Vorinostat] (partner 1 µM)", "assay": "relative viability (nuclei count vs DMSO), 5 days (fraction); higher = more cells survive", "details": "first compound 2.53 µM", "in_short": "as §1", "values": [{"cell line": "NCI-H522", "relative viability": 0.872}, {"cell line": "NCI-H727", "relative viability": 1.17}, {"cell line": "NCI-H1650", "relative viability": 0.588}, {"cell line": "NCI-H1993", "relative viability": 1.08}, {"cell line": "SW 1573", "relative viability": 0.588}, {"cell line": "NCI-H838", "relative viability": 0.763}, {"cell line": "LCLC-103H", "relative viability": 0.591}, {"cell line": "NCI-H520", "relative viability": 0.669}, {"cell line": "NCI-H2126", "relative viability": 0.5}, {"cell line": "EMC-BAC-2", "relative viability": 0.528}, {"cell line": "NCI-H2085", "relative viability": 0.86}, {"cell line": "HCC-366", "relative viability": 0.371}, {"cell line": "NCI-H1666", "relative viability": 1.04}, {"cell line": "NCI-H596", "relative viability": 0.725}, {"cell line": "LK-2", "relative viability": 0.34}, {"cell line": "NCI-H2087", "relative viability": 0.624}, {"cell line": "NCI-H2342", "relative viability": 0.715}, {"cell line": "SK-MES-1", "relative viability": 1.2}, {"cell line": "NCI-H2170", "relative viability": 0.844}, {"cell line": "HCC-44", "relative viability": 1.13}, {"cell line": "SW 900", "relative viability": 0.505}, {"cell line": "NCI-H1648", "relative viability": 0.443}, {"cell line": "NCI-H1395", "relative viability": 0.927}, {"cell line": "NCI-H1793", "relative viability": 0.913}, {"cell line": "NCI-H1944", "relative viability": 0.538}, {"cell line": "ABC-1", "relative viability": 1.23}, {"cell line": "NCI-H358", "relative viability": 0.614}]}, {"compound": "Cc1ccccc1C(C(=O)NC1CCCCC1)N(C(=O)Cn1ccnc1C)c1cccc(F)c1 [IDH-C35] + O=C(CCCCCCC(=O)Nc1ccccc1)NO [Vorinostat] (partner 1 µM)", "assay": "relative viability (nuclei count vs DMSO), 5 days (fraction); higher = more cells survive", "details": "first compound 8 µM", "in_short": "as §1", "values": [{"cell line": "NCI-H522", "relative viability": 0.883}, {"cell line": "NCI-H727", "relative viability": 1.16}, {"cell line": "NCI-H1650", "relative viability": 0.84}, {"cell line": "NCI-H1993", "relative viability": 0.897}, {"cell line": "SW 1573", "relative viability": 0.666}, {"cell line": "NCI-H838", "relative viability": 0.72}, {"cell line": "LCLC-103H", "relative viability": 0.625}, {"cell line": "NCI-H520", "relative viability": 0.699}, {"cell line": "NCI-H2126", "relative viability": 0.61}, {"cell line": "EMC-BAC-2", "relative viability": 0.542}, {"cell line": "NCI-H2085", "relative viability": 0.719}, {"cell line": "HCC-366", "relative viability": 0.404}]}]}
